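Assay format: 96-well plates, 48-hour exposure. GI50 = concentration required for 50% inhibition of growth.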 The source made the active and inactive calls. No stated cut-off is given here; in the data, active = GI50 up to about 1.1 µM and inactive = higher.
Columns and labels:
Assay in all cases: growth of human tumour cells (NCI), 48 h
[1] = test system: 786-0
[2] = test system: OVCAR-3
[3] = test system: PC-3
[4] = test system: SNB-75
[5] = test system: SR
[6] = test system: ACHN
[7] = test system: CCRF-CEM
[8] = test system: MDA-N
[9] = test system: OVCAR-5
[10] = test system: M14
[11] = test system: MCF7
[12] = test system: A549
[13] = test system: SF-295
[14] = test system: NCI-H460
[15] = test system: CAKI-1
[16] = test system: UO-31
[17] = test system: DU-145
[18] = test system: SK-MEL-5
[19] = test system: HOP-62
[20] = test system: MDA-MB-231
[21] = test system: SK-OV-3
[22] = test system: SF-268
[23] = test system: NCI/ADR-RES
[24] = test system: SK-MEL-2
[25] = test system: K562
[26] = test system: TK-10
[27] = test system: SN12C
[28] = test system: HCT-15
[29] = test system: NCI-H23
[30] = test system: BT-549
[31] = test system: IGROV-1
[32] = test system: KM12
[33] = test system: UACC-257
[34] = test system: HCC 2998
[35] = test system: EKVX
[36] = test system: SNB-19
[37] = test system: T47D
[38] = test system: OVCAR-4
[39] = test system: COLO 205
[40] = test system: NCI-H522
[41] = test system: U-251
[42] = test system: RXF 393
[43] = test system: UACC-62
[44] = test system: LOX IMVI
[45] = test system: HCT-116
[46] = test system: MOLT-4
[47] = test system: HOP-92
[48] = test system: HT-29
[49] = test system: A498
[50] = test system: SF-539
[51] = test system: MDA-MB-435
[52] = test system: Malme-3M
[53] = test system: SW-620
[54] = test system: SK-MEL-28
[55] = test system: OVCAR-8
[56] = test system: NCI-H226

O=C(OCC(Cl)(Cl)Cl)N1CC[C@H](C2CCCCC2)C1
GI50 [1]: 16700 nM (inactive) | GI50 [2]: 16600 nM (inactive) | GI50 [3]: 21600 nM (inactive) | GI50 [4]: 20800 nM (inactive) | GI50 [5]: 16300 nM (inactive) | GI50 [6]: 19300 nM (inactive) | GI50 [7]: 15500 nM (inactive) | GI50 [8]: 34900 nM (inactive) | GI50 [9]: 18900 nM (inactive) | GI50 [10]: 20700 nM (inactive) | GI50 [11]: 18600 nM (inactive) | GI50 [12]: 14900 nM (inactive) | GI50 [13]: 16200 nM (inactive) | GI50 [14]: 18600 nM (inactive) | GI50 [15]: 31600 nM (inactive) | GI50 [16]: 17600 nM (inactive) | GI50 [17]: 15800 nM (inactive) | GI50 [18]: 14900 nM (inactive) | GI50 [19]: 18300 nM (inactive) | GI50 [20]: 35500 nM (inactive) | GI50 [21]: 15600 nM (inactive) | GI50 [22]: 21000 nM (inactive) | GI50 [23]: 15000 nM (inactive) | GI50 [24]: 15800 nM (inactive) | GI50 [25]: 21100 nM (inactive) | GI50 [26]: 18800 nM (inactive) | GI50 [27]: 37200 nM (inactive) | GI50 [28]: 18200 nM | GI50 [29]: 15300 nM (inactive) | GI50 [30]: 24200 nM (inactive) | GI50 [31]: 16400 nM (inactive) | GI50 [32]: 17300 nM (inactive) | GI50 [33]: 19100 nM (inactive) | GI50 [34]: 18500 nM (inactive) | GI50 [35]: 16900 nM (inactive) | GI50 [36]: 16500 nM (inactive) | GI50 [37]: 15300 nM (inactive) | GI50 [38]: 16600 nM (inactive) | GI50 [39]: 18800 nM (inactive) | GI50 [40]: 17100 nM (inactive) | GI50 [41]: 1090 nM (active) | GI50 [42]: 19500 nM (inactive) | GI50 [43]: 22100 nM (inactive) | GI50 [44]: 19500 nM (inactive) | GI50 [45]: 14600 nM (inactive) | GI50 [46]: 28100 nM (inactive)

COc1cc2cc(C(=O)N3CC(CCl)c4c3cc(NC(=O)C(C)Nc3c([N+](=O)[O-])cc(C(=O)NCCN(C)C)cc3[N+](=O)[O-])c3ccccc43)[nH]c2c(OC)c1OC (stereo not given)
GI50 [1]: 20.4 nM (active) | GI50 [2]: 201 nM (active) | GI50 [3]: 177 nM (active) | GI50 [4]: 27.2 nM (active) | GI50 [47]: 28.5 nM (active) | GI50 [48]: 55 nM (active) | GI50 [6]: 32 nM (active) | GI50 [7]: < 10 nM (active) | GI50 [8]: 158 nM (active) | GI50 [9]: 55.5 nM (active) | GI50 [10]: 187 nM (active) | GI50 [11]: 11.8 nM (active) | GI50 [12]: 68.2 nM (active) | GI50 [13]: 129 nM (active) | GI50 [14]: 15.7 nM (active) | GI50 [15]: 220 nM (active) | GI50 [16]: 451 nM (active) | GI50 [17]: < 18.2 nM (active) | GI50 [18]: 104 nM (active) | GI50 [19]: 61.9 nM (active) | GI50 [20]: 180 nM (active) | GI50 [21]: 210 nM (active) | GI50 [22]: 20.2 nM (active) | GI50 [23]: 441 nM (active) | GI50 [24]: 67.5 nM (active) | GI50 [25]: 36.3 nM (active) | GI50 [49]: 212 nM (active) | GI50 [26]: 333 nM (active) | GI50 [27]: 105 nM (active) | GI50 [28]: 164 nM | GI50 [29]: < 10 nM (active) | GI50 [50]: 33.1 nM (active) | GI50 [30]: 187 nM (active) | GI50 [51]: 160 nM (active) | GI50 [31]: 120 nM (active) | GI50 [32]: 119 nM (active) | GI50 [52]: 129 nM (active) | GI50 [33]: 182 nM (active) | GI50 [34]: 31.5 nM (active) | GI50 [35]: 229 nM (active) | GI50 [36]: 140 nM (active) | GI50 [37]: 46 nM (active) | GI50 [38]: 191 nM (active) | GI50 [39]: 51.5 nM (active) | GI50 [53]: 117 nM (active) | GI50 [40]: 17.2 nM (active) | GI50 [41]: 17.8 nM (active) | GI50 [54]: 123 nM (active) | GI50 [55]: 132 nM (active) | GI50 [56]: 113 nM (active) | GI50 [43]: 58.6 nM (active) | GI50 [44]: 47.8 nM (active) | GI50 [45]: 74.3 nM (active) | GI50 [46]: 24.4 nM (active)

— ChEMBL document CHEMBL1201862, “PubChem BioAssay data set” (2004)
